Laboratory results from PubChem BioAssay (NCI).
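Where inhibition never reached the appropriate level, the endpoint shown equals the highest concentration tested. Otherwise, values were interpolated linearly from a five-concentration, 48-hour dose response in 96-well plates. TGI: total growth inhibition.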

Tests used:
Assay in all cases: inhibition of tumour cell growth, NCI panel, 48 h
HOP-92 NSCLC = tested on: HOP-92 NSCLC
SF-268 CNS = tested on: SF-268 CNS
EKVX NSCLC = tested on: EKVX NSCLC
A549 NSCLC = tested on: A549 NSCLC
OVCAR-8 ovarian = tested on: OVCAR-8 ovarian
IGROV1 ovarian = tested on: IGROV1 ovarian
UACC-257 melanoma = tested on: UACC-257 melanoma
A498 renal = tested on: A498 renal
HT29 colon = tested on: HT29 colon
CCRF-CEM leukemia = tested on: CCRF-CEM leukemia
K-562 leukemia = tested on: K-562 leukemia
OVCAR-3 ovarian = tested on: OVCAR-3 ovarian
MDA-MB-231 breast = tested on: MDA-MB-231 breast
HCT-116 colon = tested on: HCT-116 colon
HCC-2998 colon = tested on: HCC-2998 colon
SK-MEL-2 melanoma = tested on: SK-MEL-2 melanoma
CAKI-1 renal = tested on: CAKI-1 renal
PC-3 prostate = tested on: PC-3 prostate
UACC-62 melanoma = tested on: UACC-62 melanoma
OVCAR-4 ovarian = tested on: OVCAR-4 ovarian
TK-10 renal = tested on: TK-10 renal
KM12 colon = tested on: KM12 colon
NCI-H226 lung = tested on: NCI-H226 lung
UO-31 renal = tested on: UO-31 renal
SW-620 colon = tested on: SW-620 colon
SNB-19 CNS = tested on: SNB-19 CNS
M14 melanoma = tested on: M14 melanoma
SK-MEL-5 melanoma = tested on: SK-MEL-5 melanoma
T-47D breast = tested on: T-47D breast
HOP-62 NSCLC = tested on: HOP-62 NSCLC
NCI-H23 lung = tested on: NCI-H23 lung
HL-60(TB) leukemia = tested on: HL-60(TB) leukemia
BT-549 breast = tested on: BT-549 breast
DU-145 prostate = tested on: DU-145 prostate
786-0 renal = tested on: 786-0 renal
HS 578T breast = tested on: HS 578T breast
MOLT-4 leukemia = tested on: MOLT-4 leukemia
RXF 393 renal = tested on: RXF 393 renal
SF-295 CNS = tested on: SF-295 CNS
U251 CNS = tested on: U251 CNS
COLO 205 colon = tested on: COLO 205 colon
SNB-75 CNS = tested on: SNB-75 CNS
SK-MEL-28 melanoma = tested on: SK-MEL-28 melanoma
NCI-H460 lung = tested on: NCI-H460 lung
OVCAR-5 ovarian = tested on: OVCAR-5 ovarian
SF-539 CNS = tested on: SF-539 CNS
RPMI-8226 leukemia = tested on: RPMI-8226 leukemia
MDA-MB-435 = tested on: MDA-MB-435
NCI/ADR-RES ovarian = tested on: NCI/ADR-RES ovarian
ACHN renal = tested on: ACHN renal
HCT-15 colon = tested on: HCT-15 colon
SN12C renal = tested on: SN12C renal
NCI-H522 lung = tested on: NCI-H522 lung
MALME-3M melanoma = tested on: MALME-3M melanoma
SR leukemia = tested on: SR leukemia
MCF7 breast = tested on: MCF7 breast
LOX IMVI melanoma = tested on: LOX IMVI melanoma
SK-OV-3 ovarian = tested on: SK-OV-3 ovarian

SMILES: O=C(CC(=O)N1N=C(N2c3ccccc3Sc3ccccc32)CC1c1ccccc1)Nc1ccccc1Cl (centres undefined)
- TGI (HOP-92 NSCLC): > 100 µM
- TGI (SF-268 CNS): > 100 µM
- TGI (EKVX NSCLC): > 100 µM
- TGI (A549 NSCLC): > 100 µM
- TGI (OVCAR-8 ovarian): > 100 µM
- TGI (IGROV1 ovarian): > 100 µM
- TGI (UACC-257 melanoma): > 100 µM
- TGI (A498 renal): > 100 µM
- TGI (HT29 colon): > 100 µM
- TGI (CCRF-CEM leukemia): > 100 µM
- TGI (K-562 leukemia): > 100 µM
- TGI (OVCAR-3 ovarian): > 100 µM
- TGI (MDA-MB-231 breast): > 100 µM
- TGI (HCT-116 colon): > 100 µM
- TGI (HCC-2998 colon): > 100 µM
- TGI (SK-MEL-2 melanoma): > 100 µM
- TGI (CAKI-1 renal): > 100 µM
- TGI (PC-3 prostate): > 100 µM
- TGI (UACC-62 melanoma): > 100 µM
- TGI (OVCAR-4 ovarian): > 100 µM
- TGI (TK-10 renal): > 100 µM
- TGI (KM12 colon): > 100 µM
- TGI (NCI-H226 lung): > 100 µM
- TGI (UO-31 renal): > 100 µM
- TGI (SW-620 colon): > 100 µM
- TGI (SNB-19 CNS): > 100 µM
- TGI (M14 melanoma): > 100 µM
- TGI (SK-MEL-5 melanoma): > 100 µM
- TGI (T-47D breast): > 100 µM
- TGI (HOP-62 NSCLC): > 100 µM
- TGI (NCI-H23 lung): > 100 µM
- TGI (HL-60(TB) leukemia): > 100 µM
- TGI (BT-549 breast): > 100 µM
- TGI (DU-145 prostate): > 100 µM
- TGI (786-0 renal): > 100 µM
- TGI (HS 578T breast): > 100 µM
- TGI (MOLT-4 leukemia): > 100 µM
- TGI (RXF 393 renal): > 100 µM
- TGI (SF-295 CNS): > 100 µM
- TGI (U251 CNS): > 100 µM
- TGI (COLO 205 colon): > 100 µM
- TGI (SNB-75 CNS): > 100 µM
- TGI (SK-MEL-28 melanoma): > 100 µM
- TGI (NCI-H460 lung): > 100 µM
- TGI (OVCAR-5 ovarian): > 100 µM
- TGI (SF-539 CNS): > 100 µM
- TGI (RPMI-8226 leukemia): > 100 µM
- TGI (MDA-MB-435): > 100 µM
- TGI (NCI/ADR-RES ovarian): > 100 µM
- TGI (ACHN renal): > 100 µM
- TGI (HCT-15 colon): > 100 µM
- TGI (SN12C renal): > 100 µM
- TGI (NCI-H522 lung): > 100 µM

SMILES: O=C1C(NCCF)=C(Cl)C(=O)c2ncccc21
- TGI (HOP-92 NSCLC): 3.67 µM
- TGI (MALME-3M melanoma): 1.2 µM
- TGI (SF-268 CNS): 4.17 µM
- TGI (EKVX NSCLC): 3.47 µM
- TGI (A549 NSCLC): 3.79 µM
- TGI (OVCAR-8 ovarian): 3.27 µM
- TGI (IGROV1 ovarian): 3.28 µM
- TGI (UACC-257 melanoma): 3.23 µM
- TGI (A498 renal): 3.17 µM
- TGI (SR leukemia): 5.35 µM
- TGI (HT29 colon): 6.15 µM
- TGI (CCRF-CEM leukemia): 0.695 µM
- TGI (K-562 leukemia): 0.575 µM
- TGI (MDA-MB-231 breast): 5.19 µM
- TGI (HCT-116 colon): 2.4 µM
- TGI (HCC-2998 colon): 2.5 µM
- TGI (SK-MEL-2 melanoma): 0.794 µM
- TGI (PC-3 prostate): 3.45 µM
- TGI (UACC-62 melanoma): 1.25 µM
- TGI (TK-10 renal): 3.23 µM
- TGI (KM12 colon): 2.93 µM
- TGI (NCI-H226 lung): 3.66 µM
- TGI (SW-620 colon): 2.15 µM
- TGI (SNB-19 CNS): 2.68 µM
- TGI (M14 melanoma): 2.28 µM
- TGI (SK-MEL-5 melanoma): 0.343 µM
- TGI (T-47D breast): 5.04 µM
- TGI (HOP-62 NSCLC): 3.47 µM
- TGI (NCI-H23 lung): 2.8 µM
- TGI (HL-60(TB) leukemia): 0.854 µM
- TGI (BT-549 breast): 2.86 µM
- TGI (DU-145 prostate): 2.33 µM
- TGI (786-0 renal): 2.51 µM
- TGI (HS 578T breast): 4.01 µM
- TGI (MOLT-4 leukemia): 3.27 µM
- TGI (RXF 393 renal): 2.01 µM
- TGI (SF-295 CNS): 3.02 µM
- TGI (U251 CNS): 2 µM
- TGI (SNB-75 CNS): 1.93 µM
- TGI (SK-MEL-28 melanoma): 2 µM
- TGI (NCI-H460 lung): 1.68 µM
- TGI (OVCAR-5 ovarian): 3.46 µM
- TGI (MCF7 breast): 2.28 µM
- TGI (SF-539 CNS): 2.34 µM
- TGI (LOX IMVI melanoma): 1.61 µM
- TGI (RPMI-8226 leukemia): 1.78 µM
- TGI (SK-OV-3 ovarian): 3.28 µM
- TGI (MDA-MB-435): 0.353 µM
- TGI (ACHN renal): 3.62 µM
- TGI (HCT-15 colon): 2.08 µM
- TGI (SN12C renal): 2.2 µM
